Experimental data taken from ChEMBL document CHEMBL3856260, “A synergistic antitumor effect of polyphyllin I and formosanin C on hepatocarcinoma cells” (Bioorg Med Chem Lett, 2016).
The source made the active and inactive calls. The calls are words filed in the database; no cut-off is given here.

Key:
[1] = Cytotoxicity against human Bel7402 cells assessed as combination index at ED90 using 1:1 compound to formosanin C incubated for 24 hrs by MTT assay; type: functional, Bel-7402
[2] = tested on: HepG2; assay: Induction of apoptosis in human HepG2 cells at 1 uM after 24 hrs by propidium iodide staining-based flow cytometry(reference value: 3.01%); type: functional
[3] = Cytotoxicity against human Bel7402 cells after 24 hrs by MTT assay; type: functional, cell-based; conditions: Bel-7402, 24 h
[4] = Cytotoxicity against human HepG2 cells assessed as combination index at ED75 using 1:1 compound to formosanin C incubated for 24 hrs by MTT assay; type: functional
[5] = tested on: HepG2; assay: Induction of apoptosis in human HepG2 cells at 1 uM after 24 hrs by propidium iodide staining-based flow cytometry in presence of formosanin C (reference value: 3.01%); type: functional
[6] = tested on: HepG2; assay: Induction of chromatin compaction in human HepG2 cells at 0.5 uM after 24 hrs by Hoechst 33258 staining-based fluorescence microscopic analysis in presence of formosanin C; type: functional, cell-based
[7] = tested on: HepG2; assay: Induction of apoptosis in human HepG2 cells assessed as downregulation of NF-kappaB […] level at 1 uM incubated for 24 hrs by RT-PCR analysis in presence of formosanin C; type: functional, cell-based
[8] = tested on: HepG2; assay: Increase in p21 level in human HepG2 cells at 1 uM incubated for 24 hrs by Western blot analysis in presence of FC; type: functional, cell-based
[9] = Cytotoxicity against human HepG2 cells assessed as combination index at ED90 using 1:1 compound to formosanin C incubated for 24 hrs by MTT assay; type: functional
[10] = tested on: HepG2; assay: Induction of apoptosis in human HepG2 cells assessed as downregulation of Bcl2 mRNA level at 1 uM incubated for 24 hrs by RT-PCR analysis in presence of formosanin C; type: functional, cell-based
[11] = tested on: HepG2; assay: Increase in cyclin E mRNA level in human HepG2 cells at 1 uM incubated for 24 hrs by RT-PCR analysis in presence of formosanin C relative to polyphyllin I alone treatment; type: functional, cell-based
[12] = Induction of apoptosis in human HepG2 cells assessed as upregulation of p53 mRNA level at 1 uM incubated for 24 hrs by RT-PCR analysis in presence of formosanin C; type: functional, cell-based
[13] = tested on: HepG2; assay: Change in PCNA mRNA level in human HepG2 cells at 1 uM incubated for 24 hrs by RT-PCR analysis in presence of formosanin C relative to formosanin C treatment; type: functional, cell-based
[14] = Cell cycle arrest in human HepG2 cells assessed as accumulation at G2 phase at 1 uM after 24 hrs by propidium iodide staining-based flow cytometry in presence of formosanin C (reference value: 2.04%); type: functional
[15] = tested on: HepG2; assay: Change in PCNA mRNA level in human HepG2 cells at 1 uM incubated for 24 hrs by RT-PCR analysis in presence of formosanin C relative to polyphyllin I alone treatment; type: functional, cell-based
[16] = Cell cycle arrest in human HepG2 cells assessed as accumulation at S phase at 1 uM after 24 hrs by propidium iodide staining-based flow cytometry(reference value: 42.33%); type: functional
[17] = tested on: HepG2; assay: Induction of cytochrome c release in human HepG2 cells by Western blot analysis in presence of FC; type: functional, cell-based
[18] = Cell cycle arrest in human HepG2 cells assessed as accumulation at G2 phase at 1 uM after 24 hrs by propidium iodide staining-based flow cytometry(reference value: 2.04%); type: functional
[19] = Cytotoxicity against human Bel7402 cells assessed as combination index at ED75 using 1:1 compound to formosanin C incubated for 24 hrs by MTT assay; type: functional, Bel-7402
[20] = Cytotoxicity against human Bel7402 cells assessed as combination index at ED50 using 1:1 compound to formosanin C incubated for 24 hrs by MTT assay; type: functional, Bel-7402
[21] = Cell cycle arrest in human HepG2 cells assessed as accumulation at G1 phase at 1 uM after 24 hrs by propidium iodide staining-based flow cytometry in presence of formosanin C (reference value: 55.62%); type: functional
[22] = tested on: HepG2; assay: Induction mitochondrial membrane potential changes in human HepG2 cells at 1 uM after 24 hrs by rhodamine 123 staining-based flow cytometry in presence of formosanin C (reference value: 23.8+/-2.3%); type: functional
[23] = Cell cycle arrest in human HepG2 cells assessed as accumulation at G1 phase at 1 uM after 24 hrs by propidium iodide staining-based flow cytometry(reference value: 55.62%); type: functional
[24] = Induction of apoptosis in human HepG2 cells assessed as upregulation of Bax mRNA level at 1 uM incubated for 24 hrs by RT-PCR analysis in presence of formosanin C; type: functional, cell-based
[25] = Cytotoxicity against human Bel7402 cells assessed as combination index at ED30 using 1:1 compound to formosanin C incubated for 24 hrs by MTT assay; type: functional, Bel-7402
[26] = tested on: HepG2; assay: Antimigratory activity in human HepG2 cells at 1 uM after 24 hrs by wound healing assay in presence of FC; type: functional, cell-based
[27] = Cytotoxicity against human HepG2 cells assessed as combination index at ED50 using 1:1 compound to formosanin C incubated for 24 hrs by MTT assay; type: functional
[28] = tested on: HepG2; assay: Induction of cytochrome c release in human HepG2 cells by Western blot analysis; type: functional, cell-based
[29] = tested on: HepG2; assay: Decrease in CDK2 level in human HepG2 cells at 1 uM incubated for 24 hrs by Western blot analysis in presence of FC; type: functional, cell-based
[30] = tested on: HepG2; assay: Increase in p21 mRNA level in human HepG2 cells at 1 uM incubated for 24 hrs by RT-PCR analysis in presence of formosanin C relative to polyphyllin I alone treatment; type: functional, cell-based
[31] = tested on: HepG2; assay: Induction of nuclear fragmentation in human HepG2 cells at 0.5 uM after 24 hrs by Hoechst 33258 staining-based fluorescence microscopic analysis in presence of formosanin C; type: functional, cell-based
[32] = Cytotoxicity against human HepG2 cells assessed as combination index at ED30 using 1:1 compound to formosanin C incubated for 24 hrs by MTT assay; type: functional
[33] = Induction of apoptosis in human HepG2 cells assessed as upregulation of caspase3 mRNA level at 1 uM incubated for 24 hrs by RT-PCR analysis in presence of formosanin C; type: functional, cell-based
[34] = tested on: HepG2; assay: Induction of nuclear fragmentation in human HepG2 cells at 1 uM after 24 hrs by Hoechst 33258 staining-based fluorescence microscopic analysis; type: functional, cell-based
[35] = tested on: HepG2; assay: Decrease in cyclin E level in human HepG2 cells at 1 uM incubated for 24 hrs Western blot analysis in presence of FC; type: functional, cell-based
[36] = tested on: HepG2; assay: Decrease in CDK2 level in human HepG2 cells at 1 uM incubated for 24 hrs by Western blot analysis in presence of formosanin C relative to relative to polyphyllin I alone treatment; type: functional, cell-based
[37] = Cell cycle arrest in human HepG2 cells assessed as accumulation at S phase at 1 uM after 24 hrs by propidium iodide staining-based flow cytometry in presence of formosanin C (reference value: 42.33%); type: functional
[38] = Induction of apoptosis in human HepG2 cells assessed as upregulation of caspase3 level at 1 uM incubated for 24 hrs by Western blot analysis in presence of formosanin C; type: functional, cell-based
[39] = tested on: HepG2; assay: Induction of chromatin compaction in human HepG2 cells at 1 uM after 24 hrs by Hoechst 33258 staining-based fluorescence microscopic analysis; type: functional, cell-based
[40] = tested on: HepG2; assay: Induction of Bax translocation from cytosol to mitochondria in human HepG2 cells by Western blot analysis; type: functional, cell-based
[41] = tested on: HepG2; assay: Induction mitochondrial membrane potential changes in human HepG2 cells at 1 uM after 24 hrs by rhodamine 123 staining-based flow cytometry (reference value: 23.8+/-2.3%); type: functional
[42] = Cytotoxicity against human HepG2 cells after 24 hrs by MTT assay; type: functional, cell-based; conditions: HepG2, 24 h
[43] = Induction of apoptosis in human HepG2 cells assessed as upregulation of Bax level at 1 uM incubated for 24 hrs by Western blot analysis in presence of formosanin C; type: functional, cell-based
[44] = Suppression of MMP9 expression in human HepG2 cells at 1 uM after 24 hrs by Western blot analysis in presence of FC; type: functional, cell-based
[45] = tested on: HepG2; assay: Induction of Bax translocation from cytosol to mitochondria in human HepG2 cells by Western blot analysis in presence of FC; type: functional, cell-based
[46] = Induction of apoptosis in human HepG2 cells assessed as upregulation of p53 level at 1 uM incubated for 24 hrs by Western blot analysis in presence of formosanin C; type: functional, cell-based
[47] = Suppression of MMP9 expression in human HepG2 cells assessed as reduction in enzyme activity at 1 uM after 24 hrs by zymographic analysis in presence of FC; type: functional, cell-based

Compound: C[C@@H]1CC[C@@]2(OC1)O[C@H]1C[C@H]3[C@@H]4CC=C5C[C@@H](O[C@@H]6O[C@H](CO)[C@@H](O[C@@H]7O[C@@H](CO)[C@H](O)[C@H]7O)[C@H](O)[C@H]6O[C@@H]6O[C@@H](C)[C@H](O)[C@@H](O)[C@H]6O)CC[C@]5(C)[C@H]4CC[C@]3(C)[C@H]1[C@@H]2C
- CI [1]: 0.46
- Activity [2]: 5.28%
- IC50 [3]: 4.74 µM
- CI [4]: 0.56
- Activity [5]: 7.52%
- Activity [6]: Active
- Activity [7]: Active
- Activity [8]: Active
- CI [9]: 0.54
- Activity [10]: Active
- Activity [11]: Active
- Activity [12]: Active
- Activity [13]: Active
- Activity [14]: 2.63%
- Activity [15]: Active
- Activity [16]: 38.4%
- Activity [17]: Active
- Activity [18]: 2.15%
- CI [19]: 0.52
- CI [20]: 0.58
- Activity [21]: 68.7%
- Activity [22]: 40.6%
- Activity [23]: 59.5%
- Activity [24]: Active
- CI [25]: 0.67
- Activity [26]: Active
- CI [27]: 0.58
- Activity [28]: Active
- Activity [29]: Active
- Activity [30]: Active
- Activity [31]: Active
- CI [32]: 0.62
- Activity [33]: Active
- Activity [34]: Active
- Activity [35]: Active
- Activity [36]: Active
- Activity [37]: 28.7%
- Activity [38]: Active
- Activity [39]: Active
- Activity [40]: Active
- Activity [41]: 27.9%
- IC50 [42]: 4.01 µM
- Activity [43]: Active
- Activity [44]: Active
- Activity [45]: Active
- Activity [46]: Active
- Activity [47]: Active
